Experimental findings from ChEMBL document CHEMBL1130646, “Excellent acceleration of the Diels-Alder reaction by microwave irradiation for the synthesis of new fluorine-substituted ligands of NMDA receptor” (Bioorg Med Chem Lett, 1998) are described below.

This experiment deals with Glutamate NMDA receptor. Description: Displacement of [3H]TCP from the TCP site of NMDA receptor in rat brain homogenate. In kind it is tissue-based.
Consider `c1csc(C2(c3cccs3)CC3c4ccccc4C2c2cccc[n+]23)c1` (configuration not stated), for which the IC50 is 3.6 nM.
Then `OCCc1ccc(C2(c3ccc(CCO)s3)CC3c4ccccc4C2c2cccc[n+]23)s1` (configuration not stated), with 12400 nM; and `FCCc1ccc(C2(c3cccs3)CC3c4ccccc4C2c2cccc[n+]23)s1` (stereo in doubt; 18), with 47 nM; and `FCCc1ccc(C2(c3cccs3)CC3c4ccccc4C2c2cccc[n+]23)s1` (stereo in doubt; 19), with 89 nM.
Then `OCCc1ccc(C2(c3cccs3)CC3c4ccccc4C2c2cccc[n+]23)s1` (stereo in doubt; 20), with 61 nM; and `OCCc1ccc(C2(c3cccs3)CC3c4ccccc4C2c2cccc[n+]23)s1` (stereo in doubt; 21), with 141 nM.
In turn, `c1ccc(C2(N3CCCCC3)CCCCC2)cc1` [PHENCYCLIDINE] gave an IC50 of 47 nM.

A word on the IC50: it is the midpoint of a concentration-inhibition curve. A low value points to higher potency.
